Where two headings read alike, the source gives them in different places.
Key:
[1] = molecular target: T1, native human TRPA1 receptors (Homo sapiens, UniProt O75762); test: PF-4840154 (1 μM)-induced Ca2+ fluorescence measurements in A549 cell line; assay type: cell-based; settings: for inhibition at 10 µM: 10 μM compound against 1 μM PF-4840154, A549 cells; for IC50: against PF-4840154 (1 μM)-evoked [Ca2+]i mobilization, A549 cells
T1 construct: stably expressing native human TRPA1 receptors were used; endogenous in cells; host or cells: A549 human lung adenocarcinoma epithelial cell line
Outline: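 A549 cells stably expressing native human TRPA1, Fluo-4 AM loaded; fluorescence Ca2+ read in HBSS with probenecid and Brilliant Black at 36.5 °C. Compounds tested alone for agonism and against 1 μM PF-4840154 for inhibition at initial 10 μM; IC50 from full concentration-response curves for selected compounds.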

[2] = system: PF-4840154-induced mechanical hyperalgesia in rats; test: Agonist (PF-4840154)-induced mechanical hyperalgesia in rats; assay type: in vivo; settings: Rattus norvegicus, 30 μmol/kg oral, PF-4840154 0.05 nmol/50 μl/paw intraplantar
Source text: Agonist (PF-4840154)-Induced Mechanical Hyperalgesia in Rats
The method is used to investigate the anti-hyperalgesic effects of the compounds listed in the present invention following agonist (PF-4840154)-induced hyperalgesic responses. The activity is indicative of TRPA1 receptor occupancy following oral dosing. Specifically, male SD rats (Charles River, Italy) weighing 70-100 g. were used. The anti-hyperalgesic effects were investigated using the electronic dynamometer test. PF-4840154 (Sigma, USA) was used to induce mechanical hyperalgesia. Local, intraplantar injection of PF-4840154 at 0.05 nmol/50 μl/paw caused the reduction of the hind paw withdrawal response induced by mechanical stimuli. Mechanical stimulation was induced in basal condition and 30, 60, 120, 180 and 240 minutes after the oral administration of the antagonists dissolved in 2.5% DMSO and 30% Solutol. Compounds were orally administered (30 μmol/kg/10 ml) to rats 1 hour before the injection of PF-4840154 into the plantar surface of a rat's hind using a micro syringe.

[3] = molecular target: T2, TRPA1 (cultured rat dorsal root ganglia neurons) (Rattus norvegicus, UniProt Q6RI86); test: PF-4840154 (10 μM)-induced Ca2+ fluorescence measurements in cultured rat dorsal root ganglia neurons; assay type: cell-based; settings: against 10 μM PF-4840154-induced [Ca2+]i mobilization, primary culture of rat dorsal ganglia neurons
T2 construct: calcium assay data obtained in primary culture of rat dorsal ganglia neurons; from tissue; host or cells: primary culture of dorsal root ganglia neurons from male SD rats
Description: PF-4840154 (10 μM)-Induced Ca^2+ Fluorescence Measurements in Cultured Rat Dorsal Root Ganglia Neurons
Male SD rats (˜50 g, Charles River, Italy) were terminally anaesthetized and decapitated. Dorsal root ganglia were removed and placed in cold Hank's balanced salt solution (HBSS) before being transferred to collagenase (2 mg/ml) and trypsin (1 mg/ml) for 35 min at 37° C. The ganglia, placed in cold DMEM supplemented with 10% fetal bovine serum, 10% horse serum, 2 mM L-glutamine, 100 U/ml penicillin and 100 μg/ml streptomycin, were dissociated in single cells by several passages through a series of syringe needles (23G down to 25G). The medium and the ganglia were filtered to remove debris, topped up with 4 ml of DMEM medium and centrifuged (1100 rpm for 6 min). The final cell pellet was re-suspended in DMEM medium [supplemented with 100 ng/ml mouse Nerve Growth Factor (mouse-NGF-7S) and cytosine-β-D-arabinofuranoside free base (ARA-C) 2.5 μM]. The cells were plated on poly-L-lysine (8.3 μM)- and laminin (5 μM)-coated 25 mm glass cover slips and kept for 2 days at 37° C. in a humidified incubator gassed with 5% CO2 and air, then treated with Fura-2-AM-ester (5 μM) in a Ca^2+ buffer solution having the following composition (mM): CaCl2 1.4, KCl 5.4, MgSO4 0.4, NaCl 135, D-glucose 5, HEPES 10 with BSA (0.1%), at pH 7.4, for 40 min at 37° C. The cells were then washed twice with the Ca^2+ buffer solution and transferred to a chamber on the stage of a Nikon eclipse TE300 microscope. Fura-2-AM-ester was excited at […] to indicate relative [Ca^2+]i changes by the F340/F380 ratio recorded with a dynamic image analysis system (Laboratory Automation 2.0, RCS, Florence, Italy) and the cells were allowed (at least 10 min) to attain a stable fluorescence before beginning the experiment. A calibration curve was set up using buffer containing Fura-2-AM-ester and determinant concentrations of free Ca^2+. This curve was then used to convert the data obtained from the F340/F380 ratio to [Ca^2+]i (nM).
All exemplified compounds were tested at the concentration of 10 μM against the calcium uptake induced by 10 μM PF-4840154. For selected examples, the entire concentration response curves were constructed and the respective IC50 value calculated.

[4] = system: oxaliplatin-induced mechanical hyperalgesia in rats; test: Oxaliplatin-induced mechanical hyperalgesia in rats; assay type: in vivo; settings: Rattus norvegicus, 168 h, 30 μmol/kg oral, 7 days post i.v. oxaliplatin 2.5 mg/kg
Description: Oxaliplatin-Induced Mechanical Hyperalgesia in Rats
The method described by Nassini et al. (Pain, 2011, 152(7), 1621-31) was used with minor modifications. Restrained rats were treated with a single intravenous bolus injection of oxaliplatin (2.5 mg/kg) dissolved in normal saline. This approach was sufficient to elicit reproducible allodynic behaviour evident 3 days post injection and during the day thereafter. For convenience all acute experiments were conducted 7 days post injection when compounds were orally administered at 30 μmol/kg.

[5] = read-out: % of reversal of mechanical allodynia
[6] = read-out: Maximal inhibition (%)

T1 sequence (O75762 whole entry): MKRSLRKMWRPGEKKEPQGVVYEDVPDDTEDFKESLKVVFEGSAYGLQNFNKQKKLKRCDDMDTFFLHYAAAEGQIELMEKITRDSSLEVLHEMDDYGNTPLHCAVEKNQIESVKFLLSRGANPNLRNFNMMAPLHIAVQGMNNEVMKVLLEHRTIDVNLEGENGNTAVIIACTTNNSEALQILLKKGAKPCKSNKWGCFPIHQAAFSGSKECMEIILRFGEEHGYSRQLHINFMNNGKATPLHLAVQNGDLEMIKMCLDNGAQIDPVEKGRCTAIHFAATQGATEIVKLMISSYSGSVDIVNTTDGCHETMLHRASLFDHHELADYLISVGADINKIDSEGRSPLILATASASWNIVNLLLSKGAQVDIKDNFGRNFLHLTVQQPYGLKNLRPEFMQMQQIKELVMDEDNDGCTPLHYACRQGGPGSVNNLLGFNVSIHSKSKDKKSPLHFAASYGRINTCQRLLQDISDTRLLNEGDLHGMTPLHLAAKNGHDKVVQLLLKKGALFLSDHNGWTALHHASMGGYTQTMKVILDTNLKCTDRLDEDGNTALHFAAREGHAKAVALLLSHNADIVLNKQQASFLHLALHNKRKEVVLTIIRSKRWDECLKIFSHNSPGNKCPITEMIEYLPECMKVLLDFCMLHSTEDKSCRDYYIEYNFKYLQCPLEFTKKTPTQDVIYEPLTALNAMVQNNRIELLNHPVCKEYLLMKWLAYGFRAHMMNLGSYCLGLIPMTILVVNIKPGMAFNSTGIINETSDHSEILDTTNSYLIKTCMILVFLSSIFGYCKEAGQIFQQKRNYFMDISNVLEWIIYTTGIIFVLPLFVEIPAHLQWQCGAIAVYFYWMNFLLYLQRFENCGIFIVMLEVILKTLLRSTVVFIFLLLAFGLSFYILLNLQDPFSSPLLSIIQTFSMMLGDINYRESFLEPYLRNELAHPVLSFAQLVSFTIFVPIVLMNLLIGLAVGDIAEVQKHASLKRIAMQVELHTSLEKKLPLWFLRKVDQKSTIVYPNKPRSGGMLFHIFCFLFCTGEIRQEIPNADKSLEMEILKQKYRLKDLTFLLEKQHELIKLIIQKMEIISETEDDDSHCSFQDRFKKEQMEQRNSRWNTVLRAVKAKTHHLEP
T2 sequence (Q6RI86 whole entry): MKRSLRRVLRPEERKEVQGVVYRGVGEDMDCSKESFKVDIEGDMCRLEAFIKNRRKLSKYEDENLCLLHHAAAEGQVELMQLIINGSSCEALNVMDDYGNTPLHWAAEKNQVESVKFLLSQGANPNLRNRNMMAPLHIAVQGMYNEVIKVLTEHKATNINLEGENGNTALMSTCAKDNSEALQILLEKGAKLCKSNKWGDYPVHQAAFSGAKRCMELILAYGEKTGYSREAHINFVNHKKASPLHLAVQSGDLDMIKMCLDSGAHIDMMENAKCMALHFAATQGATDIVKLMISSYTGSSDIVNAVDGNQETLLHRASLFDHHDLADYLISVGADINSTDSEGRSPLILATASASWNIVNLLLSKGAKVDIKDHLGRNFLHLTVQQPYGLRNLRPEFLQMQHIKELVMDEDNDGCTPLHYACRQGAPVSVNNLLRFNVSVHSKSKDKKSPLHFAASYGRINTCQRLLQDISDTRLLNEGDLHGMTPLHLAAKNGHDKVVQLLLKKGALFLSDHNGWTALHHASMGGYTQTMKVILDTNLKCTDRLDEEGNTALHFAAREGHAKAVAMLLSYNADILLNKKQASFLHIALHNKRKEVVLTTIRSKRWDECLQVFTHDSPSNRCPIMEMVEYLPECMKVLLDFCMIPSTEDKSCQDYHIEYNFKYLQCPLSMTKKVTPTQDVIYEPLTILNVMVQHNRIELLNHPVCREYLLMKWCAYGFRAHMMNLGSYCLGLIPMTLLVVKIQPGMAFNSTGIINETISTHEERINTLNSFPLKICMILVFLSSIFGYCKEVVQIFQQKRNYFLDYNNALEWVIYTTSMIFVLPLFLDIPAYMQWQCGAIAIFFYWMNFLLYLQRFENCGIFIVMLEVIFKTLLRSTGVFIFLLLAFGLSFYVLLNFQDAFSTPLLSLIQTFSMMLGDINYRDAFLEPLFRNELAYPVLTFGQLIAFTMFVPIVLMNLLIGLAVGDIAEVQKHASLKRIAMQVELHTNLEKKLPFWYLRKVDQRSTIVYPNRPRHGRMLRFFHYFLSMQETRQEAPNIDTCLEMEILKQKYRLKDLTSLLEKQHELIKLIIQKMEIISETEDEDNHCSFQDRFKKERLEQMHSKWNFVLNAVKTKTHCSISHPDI

| Structure (SMILES) | inhibition at 10 µM [1] | IC50 [1] | IC50 [3] | inhibition in vivo at 30 µmol/kg [2, 5] | inhibition in vivo at 30 µmol/kg [2, 6] | inhibition in vivo at 30 µmol/kg [4, 5] | inhibition in vivo at 30 µmol/kg [4, 6] |
| --- | --- | --- | --- | --- | --- | --- | --- |
| C=C(C(=O)NCc1cccc(-c2ccc(C(F)(F)F)cc2)c1)N(CC)S(=O)(=O)c1ccc(Cl)cc1 [Example 10, 2-[(4-chlorophenyl)sulfonyl-ethyl-amino]-N-[[3-[4-(trifluoromethyl)phenyl]phenyl]methyl]prop-2-enamide] | 99% | 25 nM | 47 nM | 63% | 63% | – | – |
| C=C(C(=O)NCc1cc(-c2ccc(C(F)(F)F)cc2)nc(-c2ccc(C(F)(F)F)cc2)c1)N(CC)S(=O)(=O)c1ccc(Cl)cc1 [Example 19, N-[[2,6-bis[4-(trifluoromethyl)phenyl]-4-pyridyl]methyl]-2-[(4-chlorophenyl)sulfonyl-ethyl-amino]prop-2-enamide] | 100% | 74 nM | 68 nM | 74% | 74% | – | – |
| C=C(C(=O)NCc1cc(-c2ccc(C(F)(F)F)cc2)nc(N2CCCC2)c1)N(CC)S(=O)(=O)c1ccc(Cl)cc1 [Example 14, 2-[(4-chlorophenyl)sulfonyl-ethyl-amino]-N-[[2-pyrrolidin-1-yl-6-[4-(trifluoromethyl)phenyl]-4-pyridyl]methyl]prop-2-enamide] | 100% | 40 nM | 60 nM | 75% | 75% | – | – |
| CCN(C1(C(=O)NCc2cccc(-c3ccc(C(F)(F)F)cc3)c2)CC1)S(=O)(=O)c1ccc(Cl)s1 [Example 59, 1-[(5-chloro-2-thienyl)sulfonyl-ethyl-amino]-N-[[3-[4-(trifluoromethyl)phenyl]phenyl]methyl]cyclopropanecarboxamide] | 99% | 38 nM | – | 111% | 111% | 67% | 67% |
| CCN(C1(C(=O)NCc2cc(-c3ccc(C(F)(F)F)cc3)nc(N3CCCC3)c2)CC1)S(=O)(=O)c1ccc(F)cc1 [Example 51, 1-[ethyl-(4-fluorophenyl)sulfonyl-amino]-N-[[2-pyrrolidin-1-yl-6-[4-(trifluoromethyl)phenyl]-4-pyridyl]methyl]cyclopropanecarboxamide] | 100% | 41 nM | – | 76% | 76% | 65% | 65% |
| C=C(C(=O)NCc1ccnc(-c2ccc(OC(F)(F)F)cc2)c1)N(CC)S(=O)(=O)c1ccc(Cl)s1 [Example 7, 2-[(5-chloro-2-thienyl)sulfonyl-ethyl-amino]-N-[[2-[4-(trifluoromethoxy)phenyl]-4-pyridyl]methyl]prop-2-enamide] | 100% | 36 nM | 29 nM | 74% | 74% | – | – |

Now those with a lower IC50 [1], led by results:

| inhibition at 10 µM [1] | IC50 [1] | IC50 [3] | Structure (SMILES) | inhibition in vivo at 30 µmol/kg [2, 5] | inhibition in vivo at 30 µmol/kg [2, 6] | inhibition in vivo at 30 µmol/kg [4, 5] | inhibition in vivo at 30 µmol/kg [4, 6] |
| --- | --- | --- | --- | --- | --- | --- | --- |
| 100% | 22 nM | 32 nM | C=C(C(=O)NCc1cc(-c2ccc(C(F)(F)F)cc2)nc(N2CCCC2)c1)N(CC)S(=O)(=O)c1ccc(Cl)s1 [Example 15, 2-[(5-chloro-2-thienyl)sulfonyl-ethyl-amino]-N-[[2-pyrrolidin-1-yl-6-[4-(trifluoromethyl)phenyl]-4-pyridyl]methyl]prop-2-enamide] | 72% | 72% | – | – |
| 99% | 17 nM | 20 nM | C=C(C(=O)NCc1cccc(-c2ccc(OC(F)(F)F)cc2)c1)N(CC)S(=O)(=O)c1ccc(F)cc1 [Example 11, 2-[ethyl-(4-fluorophenyl)sulfonyl-amino]-N-[[3-[4-(trifluoromethoxy)phenyl]phenyl]methyl]prop-2-enamide] | 72% | 72% | – | – |
| 100% | 17 nM | 14 nM | C=C(C(=O)NCc1cc(-c2ccc(C(F)(F)F)cc2)nc(N2CCCC2)c1)N(CC)S(=O)(=O)c1ccc(F)cc1 [Example 38, 2-[ethyl-(4-fluorophenyl)sulfonyl-amino]-N-[[2-pyrrolidin-1-yl-6-[4-(trifluoromethyl)phenyl]-4-pyridyl]methyl]prop-2-enamide] | 87% | 87% | – | – |
| 100% | 19 nM | – | CCN(C1(C(=O)NCc2cc(OC)nc(-c3ccc(C(F)(F)F)cc3)c2)CC1)S(=O)(=O)c1ccc(Cl)s1 [Example 50, 1-[(5-chloro-2-thienyl)sulfonyl-ethyl-amino]-N-[[2-methoxy-6-[4-(trifluoromethyl)phenyl]-4-pyridyl]methyl] cyclopropanecarboxamide] | 76% | 76% | 82% | 82% |
| 100% | 15 nM | 14 nM | C=C(C(=O)NCc1ccnc(-c2ccc(C(F)(F)F)cc2)c1)N(CC)S(=O)(=O)c1ccc(F)cc1 [Example 1, 2-[ethyl-(4-fluorophenyl)sulfonyl-amino]-N-[[2-[4-(trifluoromethyl)phenyl]-4-pyridyl]methyl]prop-2-enamide] | 80% | 80% | 97% | 97% |

Reference: patent US9409864B2, “Sulfonamide TRPA1 receptor antagonists” (ARIO PHARMA LIMITED, priority 2013, dated 2016)
